Data on four compounds can be found in BindingDB's records for doi:10.1021/jm030921v (Uppsala University, 2004).

Numbered stars: 1 amine (or outer) side, 2 acyl side, 3 side chain; on linkers, the order of the positions; unused ones are H or OH. Bridge positions count the residues as written; N and C are the ends. Peptide text beside a SMILES is read from it. CH2 = C([*:1])[*:2]

The target in the assay is Type-2 angiotensin II receptor (Sus scrofa). Put plainly: Binding affinity for Angiotensin II receptor type 2 using [125I]- Ang II in pig uterus myometrium.
With `CC(C)[C@H](NC(=O)[C@H](C)NC(=O)[C@@H](N)CC(=O)O)C(=O)Nc1ccc2c(c1)CN(CC(=O)N[C@@H](Cc1cnc[nH]1)C(=O)N1CCC[C@H]1C(=O)N[C@@H](Cc1ccccc1)C(=O)O)C(=O)[C@H](Cc1ccc(O)cc1)N2` [Angiotensin II analogue], the Ki was above 10 µM.

On to `CC(C)[C@H](NC(=O)[C@H](CCCNC(=N)N)NC(=O)[C@@H](N)CC(=O)O)C(=O)N[C@@H](Cc1ccc(O)cc1)C(=O)Nc1ccc2c(c1)CN(CC(=O)N[C@@H](Cc1ccccc1)C(=O)O)C(=O)[C@H](Cc1cnc[nH]1)N2` [Angiotensin II analogue], for which the Ki is above 10 µM. In the case of `N=C(N)NCCC[C@H](NC(=O)[C@@H](N)CC(=O)O)C(=O)Nc1ccc2c(c1)CN(CC(=O)N[C@@H](Cc1cnc[nH]1)C(=O)N1CCC[C@H]1C(=O)N[C@@H](Cc1ccccc1)C(=O)O)C(=O)[C@H](Cc1ccc(O)cc1)N2` [Angiotensin II analogue], the Ki is above 10 µM. Compound `N=C(N)NCCC[C@H](NC(=O)[C@@H](N)CC(=O)O)C(=O)N[C@H]1CSCSC[C@@H](C(=O)N[C@@H](Cc2cnc[nH]2)C(=O)N2CCC[C@H]2C(=O)N[C@@H](Cc2ccccc2)C(=O)O)NC(=O)[C@H](Cc2ccc(O)cc2)NC1=O` [Angiotensin II analogue] (H-DRCYCHPF-OH; linker 3-5 via CH2) displayed a Ki of 0.00062 µM. In other words, the sub-nanomolar range.
